Measurements reported in patent US6743568B2, “Cyanine dyes” (Kabushiki Kaisha Hayashibara Seibutsu Kagaku Kenkyujo, priority 2000, dated 2004).

Test: Solubility of cyanine dye in DAA at 20° C.
Type: physicochemical
Conditions: diacetone alcohol (DAA), 20 °C, organic solvent or mixture, in diacetone alcohol (DAA) at 20° C.; read-out: Solubility
Description: For the cyanine dyes in Table 1, they were measured in a conventional manner for solubility in […] at 20° C. In parallel, conventional related compounds represented by Chemical Formulae 73 to 76 were also measured for solubility in DAA in a similar way.

Row | Solubility | Compound
1 | 19 mg/mL | CCCCN1C(=CC=CC2=[N+](CCC)c3ccc4ccccc4c3C2(C)C)C(C)(C)c2c1ccc1ccccc21 [Chemical Formula 75, reference compound]
2 | 1.1 mg/mL | CN1C(=CC=CC2=[N+](C)c3ccc4ccccc4c3C2(C)C)C(C)(C)c2c1ccc1ccccc21 [Chemical Formula 16]
3 | 2.8 mg/mL | CCCN1C(=CC=CC2=[N+](CC)c3ccc4ccccc4c3C2(C)C)C(C)(C)c2c1ccc1ccccc21 [Chemical Formula 21]
4 | 64 mg/mL | CCCC[N+]1=C(C=CC=C2N(C)c3c(ccc4ccccc34)C2(C)C)C(C)(C)c2c1ccc1ccccc21 [Chemical Formula 50]
5 | 2.7 mg/mL | CN1C(=CC=CC2=[N+](C)c3ccc4ccccc4c3C2(C)C)C(C)(C)c2ccc3ccccc3c21 [Chemical Formula 43]

Same assay, conditions: in diacetone alcohol (DAA) at 20° C.

Row | Solubility | Compound
6 | 140 mg/mL | CCCCN1C(=CC=CC2=[N+](CC)c3ccc4ccccc4c3C2(C)C)C(C)(C)c2c1ccc1ccccc21 [Chemical Formula 20]
7 | 23 mg/mL | CCCCN1C(=CC=CC2=[N+](CC)c3ccc4ccccc4c3C2(C)C)C(C)(C)c2c1ccc1ccccc21 [Chemical Formula 19]
8 | 22 mg/mL | CCCCN1C(=CC=CC2=[N+](CC)c3ccc4ccccc4c3C2(C)C)C(C)(C)c2c1ccc1ccccc21 [Chemical Formula 74, reference compound]

The remaining lines, values behind:

Row | Compound | Solubility
9 | CCCCN1C(=CC=CC2=[N+](CCCC)c3ccc4ccccc4c3C2(C)C)C(C)(C)c2c1ccc1ccccc21 [Chemical Formula 76, reference compound] | 17 mg/mL
10 | CCCCN1C(=CC=CC2=[N+](C)c3ccc4ccccc4c3C2(C)C)C(C)(C)c2c1ccc1ccccc21 [Chemical Formula 73, reference compound] | 42 mg/mL
11 | CCCCN1C(=CC=CC2=[N+](CCCC)c3ccc4ccccc4c3C2(C)C)C(C)(C)c2c1ccc1ccccc21 [Chemical Formula 33] | 61 mg/mL
12 | CCCCN1C(=CC=CC2=[N+](C)c3ccc4ccccc4c3C2(C)C)C(C)(C)c2c1ccc1ccccc21 [Chemical Formula 13] | 143 mg/mL
13 | CCCCN1/C(=C\C=C\C2=[N+](CCCC)c3ccc4ccccc4c3C2(C)C)C(C)(C)c2c1ccc1ccccc21 [Chemical Formula 35] | 6.4 mg/mL
14 | CCCCN1C(=CC=CC2=[N+](C)c3ccc4ccccc4c3C2(C)C)C(C)(C)c2c1ccc1ccccc21 [Chemical Formula 14] | 73 mg/mL

Test: Decomposition point of cyanine dye by DTA/TGA
Type: physicochemical
Conditions: temperature at which specimen begins to lose weight on TGA; heating rate 10° C./min
Description: An adequate amount of any one of the cyanine dyes in Table 1 as a test specimen was placed in a vessel and subjected to conventional differential thermal analysis (hereinafter abbreviated as “DTA”) and thermogravimetric analysis (hereinafter abbreviated as “TGA”) using “MODEL TG/DTA 220”, a digital thermo analyzer commercialized by Seiko Instruments Inc., Tokyo, Japan, to determine their decomposition points, i.e., temperatures at which the cyanine dyes as test specimens begin to lose their weight on TGA. In parallel, conventional related compounds represented by Chemical Formulae 73 and 76 were analyzed similarly as above. […] In DTA and TGA, the environmental temperature was set to an increasing temperature mode at a rate of 10° C./min.

Row | Decomposition point (° C.) | Compound
15 | 281.8 °C | CCCCN1C(=CC=CC2=[N+](CC)c3ccc4ccccc4c3C2(C)C)C(C)(C)c2c1ccc1ccccc21 [Chemical Formula 20]
16 | 301.9 °C | CCCN1C(=CC=CC2=[N+](CC)c3ccc4ccccc4c3C2(C)C)C(C)(C)c2c1ccc1ccccc21 [Chemical Formula 21]
17 | 281.6 °C | CCCCN1C(=CC=CC2=[N+](CC)c3ccc4ccccc4c3C2(C)C)C(C)(C)c2c1ccc1ccccc21 [Chemical Formula 19]
18 | 211.5 °C | CCCCN1C(=CC=CC2=[N+](CC)c3ccc4ccccc4c3C2(C)C)C(C)(C)c2c1ccc1ccccc21 [Chemical Formula 74, reference compound]

Further lines, the compound ahead of its results:

Row | Compound | Decomposition point (° C.)
19 | CCCCN1C(=CC=CC2=[N+](CCC)c3ccc4ccccc4c3C2(C)C)C(C)(C)c2c1ccc1ccccc21 [Chemical Formula 75, reference compound] | 269.0 °C
20 | CN1C(=CC=CC2=[N+](C)c3ccc4ccccc4c3C2(C)C)C(C)(C)c2c1ccc1ccccc21 [Chemical Formula 16] | 314.5 °C
21 | CCCCN1C(=CC=CC2=[N+](CCCC)c3ccc4ccccc4c3C2(C)C)C(C)(C)c2c1ccc1ccccc21 [Chemical Formula 76, reference compound] | 266.1 °C
22 | CCCCN1C(=CC=CC2=[N+](C)c3ccc4ccccc4c3C2(C)C)C(C)(C)c2c1ccc1ccccc21 [Chemical Formula 73, reference compound] | 242.2 °C
23 | CCCCN1C(=CC=CC2=[N+](CCCC)c3ccc4ccccc4c3C2(C)C)C(C)(C)c2c1ccc1ccccc21 [Chemical Formula 33] | 284.2 °C
24 | CCCCN1C(=CC=CC2=[N+](C)c3ccc4ccccc4c3C2(C)C)C(C)(C)c2c1ccc1ccccc21 [Chemical Formula 13] | 264.7 °C
25 | CCCCN1/C(=C\C=C\C2=[N+](CCCC)c3ccc4ccccc4c3C2(C)C)C(C)(C)c2c1ccc1ccccc21 [Chemical Formula 35] | 280.1 °C
26 | CCCC[N+]1=C(C=CC=C2N(C)c3c(ccc4ccccc34)C2(C)C)C(C)(C)c2c1ccc1ccccc21 [Chemical Formula 50] | 261.3 °C
27 | CCCCN1C(=CC=CC2=[N+](C)c3ccc4ccccc4c3C2(C)C)C(C)(C)c2c1ccc1ccccc21 [Chemical Formula 14] | 279.8 °C
28 | CN1C(=CC=CC2=[N+](C)c3ccc4ccccc4c3C2(C)C)C(C)(C)c2ccc3ccccc3c21 [Chemical Formula 43] | 304.7 °C
